# Measured values published in patent US20030054985A1, “N-cadherin modulated migration, invasion, and metastasis” (priority 2000, published 2003).
# “Also recorded” adds a separate entry of the source.
# Assays:
# Assay type in all cases: cell-based, human
# [1] = tested on: MMP; assay: Zymography of conditioned media
# Method: (§1) FIG. 9. FGF-2 stimulates Matrigel invasion of N-cadherin-expressing cells and expression of MMP-9. (A) Invasion through Matrigel-coated filters of control and N-cadherin-expressing cells, pretreated for 24 h with 10 ng/ml of FGF-2 or left untreated, as measured 5 h after inoculation into Transwell chambers. The invading cells were stained (see Materials and Methods) and photographed using a digital microscope camera. Each panel illustrates a sample representing three to six filters. (B) Gelatinolytic activity of conditioned media of control (Neo-mass) (lanes 1 and 2) or N-cadherin-transfected MCF-7 cells (N-cad-mas, N-cad-5, and N-cad-17; lanes 3-8) that were either treated with FGF-2, or left untreated, as indicated. (C) Gelatinolytic activity of conditioned media of Neo-mass, N-cad-mass, N-cad-5, and N-cad- 17 that were pretreated for 24 h either with 10 ng/ml of FGF-2 (lanes 1, 3, 5 and 7, respectively) or 5 μg/ml insulin (lanes 2, 4, 6, and 8, respectively).
# (§2) Secreted metalloproteinases were detected and characterized by zymography (Nakajima I et al., 1995, Br. J. Cancer. 71:1039-1045). Conditioned media were obtained by a 30-h incubation of N-cadherin and control transfected cells, which were treated overnight with or without FGF-2 (10 ng/ml) and heparin (0.1 mg/ml) in serum-free media. Conditioned media (20 μl) were loaded on 8% SDS PAGE gels that had been copolymerized with 1 mg/ml gelatin. Electrophoresis was performed under nonreducing conditions at 100 V for 2 h at 4° C. Gels were washed once for 30 min in 2.5% Triton X-100 to remove SDS, and were incubated in collagenase buffer (100 mM Tris-HCl pH 8.0, 5 mM CaCl2, 0.02% NaN3) for 40 h at 37° C. Gels were stained with 0.5% Coomassie blue in 30% methanol/10% acetic acid for 30 min at room temperature and destained in 30% methanol/10% acetic acid three times for 15 min. The presence of metalloproteinases was indicated by an unstained proteolytic zone in the substrate. […]
# [2] = tested on: MAPK; assay: Anti-phospho-MAPK immunoblot of cell lysates
# Method: FIG. 12. N-cadherin synergizes with FGF-2 in promoting MAPK activation and MMP-9 production. A. MCF-7 breast cancer cells expressing either control vector (control) or N-cadherin (N-cad-5) were treated with or without FGF-2 and the relative activation of MAPK was assessed by blotting the lysates with anti phospho-MAPK (P-MAPK) (upper panel A, lanes 1-4) against the total levels of MAPK in the same lysates (T-MAPK) (lower panel A, lanes 1-4). B. MCF-7 breast cancer cells expressing N-cadherin (N-cad-5) were treated with or without FGF-2 in the absence or presence of a potent inhibitor of MAPK ([…]) and cell lysates were blotted with anti-P-MAPK antibodies (lower panel B) or assayed for MMP (Matrix Metallo Protease) production (upper panel B).
# To determine whether N-cadherin/FGF-2-stimulated expression of MMP-9 is caused by increased MAPK activity, levels of MAPK activation in N-cadherin-expressing MCF-7 cells (N-cad-5) were compared to those found in control MCF-7 cells (Neo-mass) in response to FGF-2. Serum-starved control and N-cad-5 cells were treated with 10 ng/mL FGF-2 for 10 min and 30 μg of cell lysate were subjected to SDS-PAGE and immunobloting with either anti-phospho-MAPK (P-MAPK) or anti-total MAPK (T-MAPK).
# [3] = tested on: MMP-9; assay: Zymography of conditioned media
# Method: as §1, with “(C) Gelatinolytic activity of conditioned media of Neo-mass, N-cad-mass, N-cad-5, and N-cad- 17 that were pretreated for 24 h either with 10 ng/ml of FGF-2 (lanes 1, 3, 5 and 7, respectively) or 5 μg/ml insulin (lanes 2, 4, 6, and 8, respectively).” left out
# FIG. 12. […] A. MCF-7 breast cancer cells expressing either control vector (control) or N-cadherin (N-cad-5) were treated with or without FGF-2 and the relative activation of MAPK was assessed by blotting the lysates with anti phospho-MAPK (P-MAPK) (upper panel A, lanes 1-4) against the total levels of MAPK in the same lysates (T-MAPK) (lower panel A, lanes 1-4). […]
# Secreted metalloproteinases were detected and characterized by zymography (Nakajima I et al., 1995, Br. J. Cancer. 71:1039-1045). […]
# [4] = tested on: Neo-mass cell; assay: Matrigel invasion assay after FGF-2 pretreatment; conditions: 10 ng/ml FGF-2 for 24 h, 5 h of incubation
# Method: (§3) FIG. 9. FGF-2 stimulates Matrigel invasion of N-cadherin-expressing cells and expression of MMP-9. (A) Invasion through Matrigel-coated filters of control and N-cadherin-expressing cells, pretreated for 24 h with 10 ng/ml of FGF-2 or left untreated, as measured 5 h after inoculation into Transwell chambers. The invading cells were stained (see Materials and Methods) and photographed using a digital microscope camera. Each panel illustrates a sample representing three to six filters. (B) Gelatinolytic activity of conditioned media of control (Neo-mass) (lanes 1 and 2) or N-cadherin-transfected MCF-7 cells (N-cad-mas, N-cad-5, and N-cad-17; lanes 3-8) that were either treated with FGF-2, or left untreated, as indicated. […] The ability of cells to migrate through control (migration) or invade through Matrigel-coated filters (invasion) was measured in a Boyden chamber, 8-micron Transwell filters, which were coated with or without 50 μg Matrigel (Becton Dickinson & Co.), were used according to standard protocols (Albini A et al., 1987, Cancer Res 47:3239-3245). […] Values for invasion were expressed as the average number of migrated cells bound per microscopic field over four fields per assay and expressed as averages for triplicate experiments.
# [5] = tested on: N-cadherin-expressing MCF-7 cells; assay: Matrigel invasion assay after FGF-2 pretreatment; conditions: N-cad mass, N-cad-5 and N-cad-17; 10 ng/ml FGF-2 for 24 h, 5 h of incubation
# Method: as §3
# [6] = tested on: MMP-2; assay: Zymography of conditioned media; conditions: N-cadherin transfectants, FGF-2 10 ng/ml
# Method: as §1, §2
# [7] = tested on: N-cadherin-expressing cell lines (N-cad-mass, N-cad-5, N-cad-17); assay: Transwell migration after FGF-2 pretreatment; conditions: pretreated 24 h with 10 ng/ml FGF-2, measured 5 h after inoculation into Transwell chambers
# Method: (§4) FIG. 8. Stimulates cell migration of N-cadherin-expressing cells. The motility of control (Neo-mass) and N-cadherin-expressing cells (N-cad-mass, N-cad-5, and N-cad-17), pretreated for 24 h with 10 ng/ml of FGF-2 or left untreated, was measured 5 h after inoculation into the Transwell chambers. (A) The migrating cells were fixed, stained, and photographed; each panel represents an example of 3-6 replicates. (B) Bar graphs represent quantitation of triplicate wells. The experiment was repeated six times.
# (§5) The ability of cells to migrate through control (migration) or invade through Matrigel-coated filters (invasion) was measured in a Boyden chamber, 8-micron Transwell filters, which were coated with or without 50 μg Matrigel (Becton Dickinson & Co.), were used according to standard protocols (Albini A et al., 1987, Cancer Res 47:3239-3245). Fibroblast conditioned medium, which was obtained by a 24-h incubation of NTH-3T3 cells with 50 μg/mL ascorbic acid in serum-free DME media, was placed in the lower chamber as a chemoattractant. […] Values for invasion were expressed as the average number of migrated cells bound per microscopic field over four fields per assay and expressed as averages for triplicate experiments.
# [8] = tested on: Neo-mass cell line; assay: Transwell migration after FGF-2 pretreatment; conditions: pretreated 24 h with 10 ng/ml FGF-2, measured 5 h after inoculation into Transwell chambers
# Method: as §4, §5
# [9] = N-cad-5 cells, FGF-2 plus inhibitor
molecule,measurement,setting,value
"insulin: Insulin from Sigma, used at a concentration that acts through the IGF-1 receptor",MMP levels,"[1]; N-cad-mass, N-cad-5, N-cad-17, 5 μg/ml insulin for 24 h",no effect
"COc1cccc(-c2cc(=O)c3ccccc3o2)c1N [PD 90859, reference compound]",phosphorylation of MAPK induced by FGF-2,[2]; [9],blocked effectively
same,production of MMP-9 induced by FGF-2,[3]; [9],blocked
"FGF-2: growth factor FGF-2, purchased from Pepro Tech",MAPK phosphorylation,"[2]; N-cad-5 cells, 10 ng/mL FGF-2 for 10 min",marked increase
same,MAPK phosphorylation (ERK/P44 isoform),"[2]; control MCF-7 cells, in the presence of FGF-2",only low levels of phosphorylation
same,invasion through Matrigel-coated filters,[4],not effect
same,invasiveness through Matrigel-coated filters,[5],further enhanced; also recorded: stimulates
same,expression of MMP-9,"[3]; all N-cadherin transfectants, FGF-2 10 ng/ml, conditioned media",dramatically increased; also recorded: stimulates
same,MMP production,"[1]; Neo-mass cells, FGF-2 10 ng/ml, conditioned media",no effect
same,MMP-2 production,[6],absence of detectable effects
same,motility,[7],dramatic increase
same,motility,[8],did not affect
